Results: USRE48335E1, “Polymyxin derivatives as antimicrobial compounds” (priority 2014, dated 2020)
≈ marks a conversion by molar mass, not a printed value. Like-named read-outs stand apart in the source and are kept apart here. Positions of bridges follow the written chain, without caps; N, C: chain ends. Non-standard residues stand in square brackets, D forms with d. Residues, ends and D or L forms follow the SMILES beside them. *: point of attachment. Benzoyl(4-Ph) = O=C(c1ccc(-c2ccccc2)cc1)*; Decanoyl = CCCCCCCCCC(=O)*; Octanoyl = CCCCCCCC(=O)*; Dab = NCC[C@H](N)C(=O)O; Hexanoyl = CCCCCC(=O)*

Key:
[1] = test system: Acinetobacter baumannii
Outline: (§1)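 Lipopeptide TFA salts are serially diluted in cation-adjusted Mueller-Hinton broth and inoculated per the CLSI M100-S18 broth microdilution method. The MIC is then recorded, with polymyxin B sulphate included as a control.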

[2] = test system: Enterobacter cloacae
Outline: as §1

[3] = test system: Klebsiella pneumoniae
Outline: as §1

[4] = test system: Pseudomonas aeruginosa
Outline: as §1

[5] = test system: P. aeruginosa ATCC 27853; experiment: In vivo efficacy in mouse blood infection model (neutropenic Swiss mice); conditions: compound, free base 4 mg/kg intravenously 2 h after inoculation, blood at 4 h
Method: P. aeruginosa ATCC 27853, A. baumannii ATCC 19606 and K. pneumoniae FADDI-KP032 were subcultured on nutrient agar plates. One colony of each bacterial strain was dispersed in 10-mL CAMHB and incubated overnight. On day 2, an aliquot (0.2 mL) of each overnight culture suspension was dispersed in 20-mL CAMHB and incubated for 1.5-2.5 h for production of early log-phase growth bacterial culture. The bacteria in the early log-phase growth suspension were concentrated by centrifugation (3,220 g for 10 min) and re-suspended in sterile 0.9% saline for inoculation into mice. The bacterial cell concentration (colony forming unit [CFU]/mL) in saline was estimated by determining the optical density (OD) of the suspension at 600 nm, and confirmed by plating the suspension on nutrient agar plates. Swiss mice (22 to 28 g) were rendered neutropenic by injecting two doses of cyclophosphamide intraperitoneally, −4 day (150 mg/kg) and −1 day (100 mg/kg) prior to inoculation. Bloodstream infection was established by injecting intravenously 50 μL of early log-phase bacterial suspension (10^8-10^9 CFU/mL). The exact injection volume for each bacterial suspension was calculated based upon the OD value of the bacterial suspension and the desired inoculum for each isolate.
Solutions for administration of colistin, polymyxin B or the compounds were prepared at a concentration of 1 mg (free base) per mL in sterile 0.9% saline. At 2 h after inoculation, a mouse in the treatment groups was injected intravenously with one of the above solutions at 4 μL/g body weight (BW) (i.e. free base 4 mg/kg BW), while the same volume of saline was injected into the control mice. At 0 h or at 4 h after the administration of antibacterial drug or saline (control), animals were euthanised by inhalation of overdose isoflurane. The skin on the chest and fore-paws of each animal was thoroughly cleansed with 70% ethanol and Betadine®. The blood was collected via cardiac puncture using a 1-mL syringe rinsed with heparin (5,000 IU/mL), diluted serially in sterile 0.9% saline and plated on nutrient agar plates using a spiral plater.
The agar plates were incubated at 37° C. overnight. The bacterial colonies on the plate were counted and CFU/mL of the blood was calculated. The log10 CFU/mL of blood in each mouse was calculated. The in vivo activity of the compounds against the bacteria was calculated as the difference of the log10 CFU/mL values between the treated mice and the control mice at 4 h (Δ log=log10 (treated)CFU/mL−log10 (control)CFU/mL).
Any compound showing a decrease in bacterial loading (Δ log) of ≥2 at 4 h is considered to have good in vivo efficacy in this initial screening model.

Compound	MIC [1] [mg/L]	Minimum inhibitory concentration, Ab A ATCC 17978 [1] [mg/L]	Minimum inhibitory concentration, Ab ATCC 19606 [1] [mg/L]	Minimum inhibitory concentration, Ab FADDI-AB034 [1] [mg/L]	Minimum inhibitory concentration, Ec FADDI-EC001 [2] [mg/L]	Minimum inhibitory concentration, Ec FADDI-EC003 [2] [mg/L]	Minimum inhibitory concentration, Ec FADDI-EC006 [2] [mg/L]	MIC [3] [mg/L]	MIC [4] [mg/L]	Minimum inhibitory concentration, Pa ATCC 27853 [4] [mg/L]	Minimum inhibitory concentration, Pa FADDI-PA022 [4] [mg/L]	Minimum inhibitory concentration, Pa FADDI-PA025 [4] [mg/L]	Δ log (Treated-Control at 4 h) [5] [log10 CFU/mL]	other results
CCCCCCCC(=O)N[C@@H](CCN)C(=O)N[C@H](C(=O)N[C@H](CO)C(=O)N[C@H]1CCNC(=O)[C@H]([C@@H](C)O)NC(=O)[C@H](CCN)NC(=O)[C@H](CCN)NC(=O)[C@H]([C@@H](C)O)NC(=O)[C@@H](Cc2ccccc2)NC(=O)[C@H](CCN)NC1=O)[C@@H](C)O [Compound 3] (Octanoyl-[Dab]T[dS][Dab][Dab][dF]T[Dab][Dab]T; lactam 4-C)	0.25 (≈ 0.215 µM)	<0.125	0.25 (≈ 0.215 µM)	<0.125	0.5 (≈ 0.429 µM)	<0.125	0.25 (≈ 0.215 µM)	<0.125	4 (≈ 3.44 µM)	4 (≈ 3.44 µM)	4 (≈ 3.44 µM)	>32	–	–
CCCCCCCC(=O)N[C@@H](CCN)C(=O)N[C@H](C(=O)N[C@H](CO)C(=O)N[C@H]1CCNC(=O)[C@H]([C@@H](C)O)NC(=O)[C@H](CCN)NC(=O)[C@H](CCN)NC(=O)[C@H](C(C)C)NC(=O)[C@@H](CC(C)C)NC(=O)[C@H](CCN)NC1=O)[C@@H](C)O [Compound 5] (Octanoyl-[Dab]T[dS][Dab][Dab][dL]V[Dab][Dab]T; lactam 4-C)	<0.125	<0.125	<0.125	0.25 (≈ 0.222 µM)	0.25 (≈ 0.222 µM)	<0.125	0.25 (≈ 0.222 µM)	<0.125	2 (≈ 1.77 µM)	2 (≈ 1.77 µM)	4 (≈ 3.54 µM)	16 (≈ 14.2 µM)	–	–
CCCCCCCC(=O)N[C@@H](CCN)C(=O)N[C@H](C(=O)N[C@H](CO)C(=O)N[C@H]1CCNC(=O)[C@H]([C@@H](C)O)NC(=O)[C@H](CCN)NC(=O)[C@H](CCN)NC(=O)[C@H](CO)NC(=O)[C@@H](CC(C)C)NC(=O)[C@H](CCN)NC1=O)[C@@H](C)O [Compound 6] (Octanoyl-[Dab]T[dS][Dab][Dab][dL]S[Dab][Dab]T; lactam 4-C)	1 (≈ 0.896 µM)	1 (≈ 0.896 µM)	1 (≈ 0.896 µM)	0.5 (≈ 0.448 µM)	0.25 (≈ 0.224 µM)	0.25 (≈ 0.224 µM)	0.25 (≈ 0.224 µM)	0.5 (≈ 0.448 µM)	>32	>32	4 (≈ 3.58 µM)	>32	–	–
CCCCCC(=O)N[C@@H](CCN)C(=O)N[C@H](C(=O)N[C@H](CO)C(=O)N[C@H]1CCNC(=O)[C@H]([C@@H](C)O)NC(=O)[C@H](CCN)NC(=O)[C@H](CCN)NC(=O)[C@H]([C@@H](C)O)NC(=O)[C@@H](CC(C)C)NC(=O)[C@H](CCN)NC1=O)[C@@H](C)O [Compound 8] (Hexanoyl-[Dab]T[dS][Dab][Dab][dL]T[Dab][Dab]T; lactam 4-C)	2 (≈ 1.81 µM)	2 (≈ 1.81 µM)	2 (≈ 1.81 µM)	1 (≈ 0.907 µM)	0.25 (≈ 0.227 µM)	0.5 (≈ 0.454 µM)	0.25 (≈ 0.227 µM)	1 (≈ 0.907 µM)	4 (≈ 3.63 µM)	4 (≈ 3.63 µM)	8 (≈ 7.26 µM)	>32	−0.05	–
CCCCCC(=O)N[C@@H](CCN)C(=O)N[C@H](C(=O)N[C@@H](CCN)C(=O)N[C@H]1CCNC(=O)[C@H]([C@@H](C)O)NC(=O)[C@H](CCN)NC(=O)[C@H](CCN)NC(=O)[C@H]([C@@H](C)O)NC(=O)[C@@H](CC(C)C)NC(=O)[C@H](CCN)NC1=O)[C@@H](C)O [Compound 26] (Hexanoyl-[Dab]T[Dab][Dab][Dab][dL]T[Dab][Dab]T; lactam 4-C)	16 (≈ 14.3 µM)	8 (≈ 7.17 µM)	16 (≈ 14.3 µM)	16 (≈ 14.3 µM)	0.5 (≈ 0.448 µM)	0.5 (≈ 0.448 µM)	1 (≈ 0.897 µM)	2 (≈ 1.79 µM)	0.5 (≈ 0.448 µM)	0.5 (≈ 0.448 µM)	2 (≈ 1.79 µM)	>32	−0.04	–
CCCCCCCCCC(=O)N[C@@H](CCN)C(=O)N[C@H](C(=O)N[C@@H](CCN)C(=O)N[C@H]1CCNC(=O)[C@H]([C@@H](C)O)NC(=O)[C@H](CCN)NC(=O)[C@H](CCN)NC(=O)[C@H]([C@@H](C)O)NC(=O)[C@@H](CC(C)C)NC(=O)[C@H](CCN)NC1=O)[C@@H](C)O [Compound 27] (Decanoyl-[Dab]T[Dab][Dab][Dab][dL]T[Dab][Dab]T; lactam 4-C)	1 (≈ 0.854 µM)	1 (≈ 0.854 µM)	1 (≈ 0.854 µM)	1 (≈ 0.854 µM)	<0.125	<0.125	0.25 (≈ 0.213 µM)	0.5 (≈ 0.427 µM)	1 (≈ 0.854 µM)	1 (≈ 0.854 µM)	1 (≈ 0.854 µM)	16 (≈ 13.7 µM)	−3.67	–
CC(C)C[C@H]1NC(=O)[C@H](CCN)NC(=O)[C@@H](NC(=O)[C@H](CCN)NC(=O)[C@@H](NC(=O)[C@H](CCN)NC(=O)c2ccc(-c3ccccc3)cc2)[C@@H](C)O)CCNC(=O)[C@H]([C@@H](C)O)NC(=O)[C@H](CCN)NC(=O)[C@H](CCN)NC(=O)[C@H]([C@@H](C)O)NC1=O [Compound 29] ({Benzoyl(4-Ph)}-[Dab]T[Dab][Dab][Dab][dL]T[Dab][Dab]T; lactam 4-C)	–	–	–	–	–	–	–	–	–	–	–	–	−2.80	MIC ([1]; A. baumannii ATCC 19606): 8 mg/L (≈ 6.68 µM); Minimum inhibitory concentration, Ab A ATCC 17978 ([1]; Acinetobacter baumannii ATCC 17978, broth microdilution in CAMHB): 2 mg/L (≈ 1.67 µM); Minimum inhibitory concentration, Ab ATCC 19606 ([1]; Acinetobacter baumannii ATCC 19606, broth microdilution in CAMHB): 8 mg/L (≈ 6.68 µM); Minimum inhibitory concentration, Ab FADDI-AB034 ([1]; Acinetobacter baumannii FADDI-AB034, broth microdilution in CAMHB): 4 mg/L (≈ 3.34 µM); Minimum inhibitory concentration, Ec FADDI-EC001 ([2]; Enterobacter cloacae FADDI-EC001, broth microdilution in CAMHB): 0.5 mg/L (≈ 0.418 µM); Minimum inhibitory concentration, Ec FADDI-EC003 ([2]; Enterobacter cloacae FADDI-EC003, broth microdilution in CAMHB): 1 mg/L (≈ 0.835 µM); Minimum inhibitory concentration, Ec FADDI-EC006 ([2]; Enterobacter cloacae FADDI-EC006, broth microdilution in CAMHB): 0.5 mg/L (≈ 0.418 µM); MIC ([3]; K. pneumoniae FADDI-KP032): 1 mg/L (≈ 0.835 µM); MIC ([4]; P. aeruginosa ATCC 27853): 1 mg/L (≈ 0.835 µM); Minimum inhibitory concentration, Pa ATCC 27853 ([4]; Pseudomonas aeruginosa ATCC 27853, broth microdilution in CAMHB): 1 mg/L (≈ 0.835 µM); Minimum inhibitory concentration, Pa FADDI-PA022 ([4]; Pseudomonas aeruginosa FADDI-PA022, broth microdilution in CAMHB): 4 mg/L (≈ 3.34 µM); Minimum inhibitory concentration, Pa FADDI-PA025 ([4]; Pseudomonas aeruginosa FADDI-PA025, broth microdilution in CAMHB): 32 mg/L (≈ 26.7 µM)
